# Results from US20080319042A1, “Compositions and methods for treatment of liver disease” (priority 2007, published 2008).
# How the values were obtained:
# SARS = format: cell-based; settings: 50 mg·mL; FIG. 4
# HCV/HIV pseudovirions = test: microbe, parasite or virus in culture; format: cell-based, hepatitis C virus; settings: for inhibition of HCV/HIV entry: 100 μg/mL
# HCV JFH1 = HCV JFH1 infectivity assay (JFH1 Foci Reduction Assay); format: cell-based, hepatitis C virus; settings: virus preincubated with compound; Huh 7 cells; 48 hr post infection; RD8, RD16, RD17, RD18 as glucosidase hydrolysis products
# Hep G2 2.2.15 cells = test: Cytotoxicity Assay (MTT); format: cell-based, human
# Protocol: Hep G2 2.2.15 cells (120 μl) were seeded onto 96-well plates at a concentration of 2×10^5 cells/mL. After incubation for 72 h, serial dilutions of the test samples were added to monolayer Hep G2 2.2.15 cells, and culture at 37° C. in a humidified atmosphere of 5% CO2 in air for an additional 9 days, and the medium with sample was changed every 3 days, 10 μL 10% aqueous DMSO was used as control group. After incubation, the supernatant was taken out and 90 μL of DMEM and 10 μL of the 5 mg/ml MTT (3-[4,5-dimethylthiazol-2-yl]-2,5-diphenyltetrazolium bromide) solution was then added to each well, and the plates were incubated for an additional 3 hours. The MTT was removed, and to each well was added 100 μl of DMSO. The plates were agitated on an orbital shaker at 50 rpm at room temperature for 5 min. The optical density of each sample was measured at 490 nm. The percent absorbance of the samples treated with the test material was compared to the untreated sample to calculate the percentage of control. Data are expressed as relative viability, with cytotoxicity indicated by <100% relative viability.
compound,measurement,setting,value
COC(=O)C1=COC(O)C2C1C(O)C(O)C2(C)O (mixture of isomers) [lamiridosin],activity against SARS virus entry,SARS,inactive
same,Exp2 (% Inhib),HCV/HIV pseudovirions; 1 ug/mL,56.6%
same,Trial 1 (% Inhib),HCV/HIV pseudovirions; 1 ug/mL,70.1%
same,Exp2 (% Inhib),HCV/HIV pseudovirions; 5 ug/mL,68.4%
same,Trial 1 (% Inhib),HCV/HIV pseudovirions; 5 ug/mL,81.2%
same,Exp2 (% Inhib),HCV/HIV pseudovirions; 10 ug/mL,81.8%
same,Trial 1 (% Inhib),HCV/HIV pseudovirions; 10 ug/mL,86.8%
same,Exp2 (% Inhib),HCV/HIV pseudovirions; 50 ug/mL,96.7%
same,Trial 1 (% Inhib),HCV/HIV pseudovirions; 50 ug/mL,96.1%
same,Exp2 (% Inhib),HCV/HIV pseudovirions; 100 ug/mL,99.5%
same,Trial 1 (% Inhib),HCV/HIV pseudovirions; 100 ug/mL,99.5%
same,inhibition of HCV/HIV entry,HCV/HIV pseudovirions; FIG. 1,approximately 80%
same,inhibition of HCV/HIV entry,"HCV/HIV pseudovirions; FIG. 1, listed as Lamiridosin",ca. 85%
same,anti-hepatitis C virus activity (in words),HCV/HIV pseudovirions; FIG. 1,did block HCV viral entry
same,IC50 in the anti-HCV assay (HCV viral entry),HCV/HIV pseudovirions; FIG. 2,0.6 µg/mL
same,IC50,"HCV/HIV pseudovirions; FIG. 2, read-out: IC50 in the anti-HCV assay (HCV viral entry)",2310 nM
same,Imax in the anti-HCV assay,HCV/HIV pseudovirions; FIG. 2 fit,93.9±3.5%
same,Estimated IC50 (inhibition of HCV JFH1 infectivity),HCV JFH1,20 µg/mL
same,Toxicity to Hep G2 2.2.15 cells (Table 2),Hep G2 2.2.15 cells; 75 μg/mL,Toxic
same,Toxicity to Hep G2 2.2.15 cells (Table 2),Hep G2 2.2.15 cells; 150 μg/mL,Toxic
same,cytotoxicity to the Hep G2 2.2.15 cells,Hep G2 2.2.15 cells; at doses greater than 50 μg/ml,non-cytotoxic
